We go through 3 molecules from ChEMBL document CHEMBL4346765, “Design, synthesis and biological evaluation of novel dithiocarbamate-substituted diphenylaminopyrimidine derivatives as BTK inhibitors” (Bioorg Med Chem, 2019).

In one data set the test system is MCF7. Put plainly: Cytotoxicity against human MCF7 cells assessed as reduction in cell viability at 0.1 to 40 uM incubated for 48 hrs by MTS assay. The format is functional, cell-based. As to conditions: MCF7, 48 h.
Data set [1] in a line: Toxicity in NOD/SCID mouse xenografted with human Ramos cells assessed as induction of morphological lesions in kidney at 60 mg/kg/day, ip administered daily for 14 days by H and E staining based histologic analysis. Type of data set: organism-based. As to conditions: in vivo, 336 h. A general note: Xenograft models place foreign cells or tissue in a host animal.
The test system of the next data set is MCF-10A. The data set is described as follows: Cytotoxicity against human MCF10A cells assessed as reduction in cell viability at 0.1 to 40 uM incubated for 48 hrs by MTS assay. Type of data set: cell-based. A general note: Tetrazolium assays rely on reduction of a dye to a coloured formazan, in cell work by metabolically active cells.
In the next data set the test system is 786-0. The data set is described as follows: Cytotoxicity against human 786-O cells assessed as reduction in cell viability at 0.1 to 40 uM incubated for 48 hrs by MTS assay. The settings on record: 786-0, 48 h. The format is functional, cell-based.
The subject of data set [2] is Ramos. The data set is described as follows: Potency index,ratio of Spebrutinib IC50 to compound IC50 for antiproliferative activity against human Ramos cells assessed as reduction in cell growth incubated for 48 hrs by MTS assay. The format is functional.
For data set [3], the system named is Raji. Put plainly: Potency index,ratio of Ibrutinib IC50 to compound IC50 for antiproliferative activity against human Raji cells assessed as reduction in cell growth incubated for 48 hrs by MTS assay. Type of data set: functional.
Data set [4] has as its target T1, Tyrosine-protein kinase BTK (Homo sapiens, UniProt Q06187). Put plainly: Inhibition of BTK in anti-IgM-stimulated human Ramos cells assessed as reduction in autophosphorylation at Y223 residues at 0.01 to 10 uM incubated for 4 hrs followed by anti-IgM stimulation for 30 mins by Western blot analysis. Type of data set: cell-based. (In general: Immunoblotting shows a protein as a band on a membrane.)

Data set [5] deals with Raji. The data set is described as follows: Antiproliferative activity against human Raji cells assessed as reduction in cell growth incubated for 48 hrs by MTS assay.
A further data set deals with PC-3. Put plainly: Cytotoxicity against human PC3 cells assessed as reduction in cell viability at 0.1 to 40 uM incubated for 48 hrs by MTS assay. As to conditions: PC-3, 48 h. Type of data set: functional, cell-based.
For another data set, the system named is HeLa. Put plainly: Cytotoxicity against human HeLa cells assessed as reduction in cell viability at 0.1 to 40 uM incubated for 48 hrs by MTS assay. The format is functional, cell-based.
Data set [6] relates to Ramos. The data set is described as follows: Potency index,ratio of Ibrutinib IC50 to compound IC50 for antiproliferative activity against human Ramos cells assessed as reduction in cell growth incubated for 48 hrs by MTS assay. The format is functional.
Data set [7] can be described thus: Cytotoxicity against human HELF cells assessed as reduction in cell viability at 0.1 to 40 uM incubated for 48 hrs by MTS assay. Type of data set: cell-based.
The next data set relates to NCI-H1299. Put plainly: Cytotoxicity against human H1299 cells assessed as reduction in cell viability at 0.1 to 40 uM incubated for 48 hrs by MTS assay. The format is functional, cell-based. The settings on record: NCI-H1299, 48 h.
For another data set, the system named is HepG2. The data set is described as follows: Cytotoxicity against human HepG2 cells assessed as reduction in cell viability at 0.1 to 40 uM incubated for 48 hrs by MTS assay. Type of data set: functional, cell-based. The settings on record: HepG2, 48 h.
The subject of a further data set is MDA-MB-231. The data set is described as follows: Cytotoxicity against human MDA-MB-231 cells assessed as reduction in cell viability at 0.1 to 40 uM incubated for 48 hrs by MTS assay. The format is functional, cell-based. The settings on record: MDA-MB-231, 48 h.
In the next data set the test system is HEF. The data set is described as follows: Cytotoxicity against human HEF cells assessed as reduction in cell viability at 0.1 to 40 uM incubated for 48 hrs by MTS assay. The format is cell-based.
The target in data set [8] is T1, Tyrosine-protein kinase BTK. Put plainly: Inhibition of BTK in anti-IgM-stimulated human Ramos cells assessed as reduction in PLCgamma2 phosphorylation at Y1217 residues at 0.01 to 10 uM incubated for 4 hrs followed by anti-IgM stimulation for 30 mins by Western blot analysis. Type of data set: cell-based.
The test system of another data set is NCI-H3122. The data set is described as follows: Cytotoxicity against human NCI-H3122 cells assessed as reduction in cell viability at 0.1 to 40 uM incubated for 48 hrs by MTS assay. Type of data set: functional, cell-based. The settings on record: NCI-H3122, 48 h.
In data set [9] the test system is Ramos. Put plainly: Antitumor activity in human Ramos cells xenografted in NOD/SCID mouse assessed as reduction in tumor growth at 30 mg/kg/day, ip administered daily for 14 days. The format is functional. The settings on record: 336 h, read-out: TGI.
The test system of another data set is Jurkat. The data set is described as follows: Cytotoxicity against human Jurkat cells assessed as reduction in cell viability at 0.1 to 40 uM incubated for 48 hrs by MTS assay. Type of data set: functional, cell-based.
Data set [10] addresses T1, Tyrosine-protein kinase BTK. Put plainly: Inhibition of BTK in anti-IgM-stimulated human Ramos cells assessed as reduction in Akt phosphorylation at 0.01 to 10 uM incubated for 4 hrs followed by anti-IgM stimulation for 30 mins by Western blot analysis. Type of data set: cell-based.
Data set [11] is described as follows: Toxicity in NOD/SCID mouse xenografted with human Ramos cells assessed as changes in body weight at 30 to 60 mg/kg/day, ip administered daily for 14 days. Type of data set: organism-based. As to conditions: in vivo, 336 h.
In the next data set the test system is KARPAS-299. The data set is described as follows: Cytotoxicity against human KARPAS299 cells assessed as reduction in cell viability at 0.1 to 40 uM incubated for 48 hrs by MTS assay. The format is functional, cell-based. The settings on record: KARPAS-299, 48 h.
The subject of another data set is BJ. Put plainly: Cytotoxicity against human BJ cells assessed as reduction in cell viability at 0.1 to 40 uM incubated for 48 hrs by MTS assay. Type of data set: cell-based.
For data set [12], the system named is Ramos. Put plainly: Antiproliferative activity against human Ramos cells assessed as reduction in cell growth incubated for 48 hrs by MTS assay.
Another data set deals with A549. The data set is described as follows: Cytotoxicity against human A549 cells assessed as reduction in cell viability at 0.1 to 40 uM incubated for 48 hrs by MTS assay. The format is functional, cell-based. As to conditions: A549, 48 h.
The subject of data set [13] is Raji. The data set is described as follows: Potency index,ratio of Spebrutinib IC50 to compound IC50 for antiproliferative activity against human Raji cells assessed as reduction in cell growth incubated for 48 hrs by MTS assay. The format is functional.
In data set [14] the test system is Ramos. The data set is described as follows: Antitumor activity in human Ramos cells xenografted in NOD/SCID mouse assessed as reduction in tumor growth at 60 mg/kg/day, ip administered daily for 14 days. Type of data set: functional. As to conditions: 336 h, read-out: TGI.
Data set [15] has as its target T1, Tyrosine-protein kinase BTK. Put plainly: Inhibition of human recombinant full length BTK expressed in baculovirus in Sf9 insect cells using Poly (4:1 Glu, Tyr) as substrate incubated for 1 hr by ADP-Glo assay.
In the next data set the test system is K562. Put plainly: Cytotoxicity against human K562 cells assessed as reduction in cell viability at 0.1 to 40 uM incubated for 48 hrs by MTS assay. As to conditions: K562, 48 h. The format is functional, cell-based.
Data set [16] is described as follows: Toxicity in NOD/SCID mouse xenografted with human Ramos cells assessed as induction of morphological lesions in spleen at 60 mg/kg/day, ip administered daily for 14 days by H and E staining based histologic analysis. The format is organism-based. The settings on record: in vivo, 336 h.
A short description of data set [17]: Toxicity in NOD/SCID mouse xenografted with human Ramos cells assessed as induction of morphological lesions in liver at 60 mg/kg/day, ip administered daily for 14 days by H and E staining based histologic analysis. The format is organism-based. The settings on record: in vivo, 336 h.
Data set [18] has as its system Ramos. Put plainly: Induction of apoptosis in human Ramos cells assessed as increase in cleaved PARP1 protein expression at 0.01 to 10 uM incubated for 8 hrs by Western blotting analysis. Type of data set: functional, cell-based.
Data set [19] is described as follows: Toxicity in NOD/SCID mouse xenografted with human Ramos cells assessed as induction of morphological lesions in lung at 60 mg/kg/day, ip administered daily for 14 days by H and E staining based histologic analysis. The settings on record: in vivo, 336 h. The format is organism-based.
For the next data set, the system named is HT-29. Put plainly: Cytotoxicity against human HT-29 cells assessed as reduction in cell viability at 0.1 to 40 uM incubated for 48 hrs by MTS assay. Type of data set: functional, cell-based. As to conditions: HT-29, 48 h.
Data set [20] is described as follows: Toxicity in NOD/SCID mouse xenografted with human Ramos cells assessed as induction of morphological lesions in heart at 60 mg/kg/day, ip administered daily for 14 days by H and E staining based histologic analysis. As to conditions: in vivo, 336 h. The format is organism-based.
For data set [21], the target named is T1, Tyrosine-protein kinase BTK. The data set is described as follows: Inhibition of BTK in anti-IgM-stimulated human Ramos cells assessed as reduction in Erk phosphorylation at 0.01 to 10 uM incubated for 4 hrs followed by anti-IgM stimulation for 30 mins by Western blot analysis. The format is cell-based.
For data set [22] the target is unchanged. Put plainly: Inhibition of BTK in anti-IgM-stimulated human Ramos cells assessed as reduction in PLCgamma2 phosphorylation at Y1217 residues at 10 uM incubated for 4 hrs followed by anti-IgM stimulation for 30 mins by Western blot analysis. Type of data set: cell-based.

Molecules are shown by their SMILES. pIC50: −log10 of the molar value. The source made the active and inactive calls. The calls are words filed in the database; no cut-off is given here. Where only a bound is given, the exact number is not on record here.

T1 sequence (Q06187 whole entry): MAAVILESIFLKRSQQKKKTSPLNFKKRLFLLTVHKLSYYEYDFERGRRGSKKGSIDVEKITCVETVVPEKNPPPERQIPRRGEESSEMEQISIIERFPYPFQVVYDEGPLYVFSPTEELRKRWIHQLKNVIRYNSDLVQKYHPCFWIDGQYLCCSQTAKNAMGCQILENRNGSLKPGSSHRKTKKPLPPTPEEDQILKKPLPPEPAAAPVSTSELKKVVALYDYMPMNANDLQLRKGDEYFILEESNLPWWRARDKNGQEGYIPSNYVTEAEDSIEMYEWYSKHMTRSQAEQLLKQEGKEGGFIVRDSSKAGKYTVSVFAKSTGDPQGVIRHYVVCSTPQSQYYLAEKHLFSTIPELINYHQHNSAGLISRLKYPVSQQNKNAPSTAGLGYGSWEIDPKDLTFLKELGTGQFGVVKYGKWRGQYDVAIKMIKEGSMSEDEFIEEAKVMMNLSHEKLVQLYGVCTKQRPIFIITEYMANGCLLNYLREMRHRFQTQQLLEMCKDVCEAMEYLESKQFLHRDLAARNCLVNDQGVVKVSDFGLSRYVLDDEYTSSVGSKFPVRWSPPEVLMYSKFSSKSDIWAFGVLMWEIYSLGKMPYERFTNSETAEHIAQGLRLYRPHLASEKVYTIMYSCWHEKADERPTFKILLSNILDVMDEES

Usually pIC50 stands for the negative decadic logarithm of the IC50, by convention in mol/L. Take `C=CC(=O)Nc1cccc(Nc2nc(Nc3ccc(OCCSC(=S)NCc4cccnc4)cc3)ncc2F)c1`: the pIC50 is 4.76 with MCF7; 5.06 in the data set on MCF-10A; 5.30 in the data set with 786-0; 6.15 in the data set on Raji [5]; 5.08 in the data set with PC-3; 5.06 in the data set on HeLa. Moreover, the pIC50 in data set [7] was 4.71; in the data set with NCI-H1299, 4.75; with HepG2, 4.79; with MDA-MB-231, 4.45; with HEF, 4.55; with NCI-H3122, 4.48. Also, the pIC50 is 5.60 in the data set with Jurkat; below 4.40 in the data set on KARPAS-299; 4.89 in the data set on BJ; 6.45 with Ramos [12]; 5.49 in the data set on A549; 8.94 in data set [15]. In addition, the pIC50 is 5.49 in the data set on K562 and 4.99 with HT-29. Moreover, the Activity result in data set [1], in data set [11], in data set [16], in data set [17], in [19] and in data set [20] was “Non-Toxic” in each case. Also, the “Ratio IC50” value with Ramos [2], in the data set with Raji [3], in the data set on Ramos [6] and with Raji [13] was 10 each time. Further, the inhibition entry in data set [4] and in [10] was “Active” each time. The inhibition result in [8] was “Dose-dependent effect”. Moreover, the inhibition in vivo at 30 mg/kg/day with Ramos [9] was determined as 21.5%. The inhibition in vivo at 60 mg/kg/day with Ramos [14] is 57.8%. The result in the data set with Ramos [18] was Active. Further, the inhibition result in [21] is “inactive”.

Turning to `CCC(=O)Nc1cccc(Nc2nc(Nc3ccc(OCCSC(=S)NCc4cccnc4)cc3)ncc2F)c1`, the pIC50 in the data set with Raji [5] was below 4.40; in the data set on Ramos [12], below 4.40; in data set [15], below 6.30. In [22], the inhibition entry was “inactive”.

For the molecule `C=CC(=O)Nc1cccc(Nc2nc(Nc3ccc(OCCOC)cc3)ncc2F)c1` [SPEBRUTINIB], the pIC50 with MCF7 is 4.54; in the data set on MCF-10A, 5.36; with 786-0 it was 4.83; in the data set on Raji [5], 4.67; in the data set on PC-3, 4.65; in the data set on HeLa, 4.76. The negative logarithm of the IC50 (pIC50) in [7] was 4.80; in the data set with NCI-H1299, 4.41; with HepG2, 4.47; in the data set on MDA-MB-231, below 4.40; with HEF, 4.65; in the data set on NCI-H3122, 4.49. Besides, the pIC50 in the data set on Jurkat was 5.17; in the data set on KARPAS-299, 4.69; in the data set with BJ, 4.56; with Ramos [12], 5.26; in the data set on A549, 5.70; in the data set on K562, 4.90. In addition, the pIC50 with HT-29 was 4.72. Further, the inhibition in vivo at 30 mg/kg/day in the data set with Ramos [9] is 28.9%.
